Assay results as given in the supplement of paper PMC10307832.

Key:
Test in all cases: relative viability (nuclei count vs DMSO), 5 days (fraction); higher = more cells survive
[1] = system: LCLC-103H
How it was run: (§1)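 Relative viability was taken as the ratio of nuclei in treated wells to nuclei in vehicle wells. Lung cancer cell lines in 1536-well plates received compounds by pin tool one day after seeding, either one drug alone or a fixed anchor-drug dose plus five library-drug doses (not always all listed) in √10 steps. Nuclei were counted on 4× images after 5 days of treatment, and values are medians of duplicate plates.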

[2] = system: NCI-H1793
How it was run: as §1

[3] = system: LXF-289
How it was run: as §1

[4] = system: NCI-H596
How it was run: as §1

[5] = system: NCI-H322M
How it was run: as §1

[6] = system: EPLC-272H
How it was run: as §1

[7] = system: NCI-H3122
How it was run: as §1

[8] = system: NCI-H2023
How it was run: as §1

[9] = system: UMC-11
How it was run: as §1

[10] = system: BEN
How it was run: as §1

[11] = system: NCI-H2126
How it was run: as §1

[12] = system: NCI-H358
How it was run: as §1

[13] = system: EMC-BAC-2
How it was run: as §1

[14] = system: EKVX
How it was run: as §1

[15] = system: NCI-H1650
How it was run: as §1

[16] = system: NCI-H2087
How it was run: as §1

[17] = system: SW 1573
How it was run: as §1

[18] = system: A-427
How it was run: as §1

[19] = system: SK-LU-1
How it was run: as §1

[20] = system: NCI-H1651
How it was run: as §1

[21] = system: COR-L23
How it was run: as §1

[22] = system: HCC-44
How it was run: as §1

[23] = system: 201T
How it was run: as §1

Oc1nc(-c2ccc(C(F)(F)F)cc2)nc2c1CSCC2 [XAV939] + Nc1ncn([C@H]2C[C@H](O)[C@@H](CO)O2)c(=O)n1 [Decitabine] (partner 2 µM)
relative viability ([1]; first compound 0.08 µM): 0.756 | relative viability ([1]; first compound 0.253 µM): 0.587 | relative viability ([1]; first compound 0.8 µM): 0.687 | relative viability ([1]; first compound 2.53 µM): 0.642 | relative viability ([2]; first compound 0.08 µM): 0.506 | relative viability ([2]; first compound 0.253 µM): 0.403 | relative viability ([2]; first compound 0.8 µM): 0.549 | relative viability ([2]; first compound 2.53 µM): 0.416 | relative viability ([3]; first compound 0.08 µM): 0.388 | relative viability ([3]; first compound 0.253 µM): 0.38 | relative viability ([3]; first compound 0.8 µM): 0.416 | relative viability ([3]; first compound 2.53 µM): 0.345 | relative viability ([4]; first compound 0.08 µM): 1 | relative viability ([4]; first compound 0.253 µM): 0.976 | relative viability ([4]; first compound 0.8 µM): 1.03 | relative viability ([4]; first compound 2.53 µM): 0.928 | relative viability ([5]; first compound 0.08 µM): 0.684 | relative viability ([5]; first compound 0.253 µM): 0.619 | relative viability ([5]; first compound 0.8 µM): 0.653 | relative viability ([5]; first compound 2.53 µM): 0.566 | relative viability ([6]; first compound 0.08 µM): 0.357 | relative viability ([6]; first compound 0.253 µM): 0.299 | relative viability ([6]; first compound 0.8 µM): 0.385 | relative viability ([6]; first compound 2.53 µM): 0.332 | relative viability ([7]; first compound 0.08 µM): 0.572 | relative viability ([7]; first compound 0.253 µM): 0.401 | relative viability ([7]; first compound 0.8 µM): 0.51 | relative viability ([7]; first compound 2.53 µM): 0.394 | relative viability ([8]; first compound 0.08 µM): 0.207 | relative viability ([8]; first compound 0.253 µM): 0.232 | relative viability ([8]; first compound 0.8 µM): 0.212 | relative viability ([8]; first compound 2.53 µM): 0.228 | relative viability ([9]; first compound 0.08 µM): 0.633 | relative viability ([9]; first compound 0.253 µM): 0.616 | relative viability ([9]; first compound 0.8 µM): 0.467 | relative viability ([9]; first compound 2.53 µM): 0.26 | relative viability ([10]; first compound 0.08 µM): 0.73 | relative viability ([10]; first compound 0.253 µM): 0.72 | relative viability ([10]; first compound 0.8 µM): 0.763 | relative viability ([10]; first compound 2.53 µM): 0.597 | relative viability ([11]; first compound 0.08 µM): 0.559 | relative viability ([11]; first compound 0.253 µM): 0.537 | relative viability ([11]; first compound 0.8 µM): 0.595 | relative viability ([11]; first compound 2.53 µM): 0.481 | relative viability ([12]; first compound 0.08 µM): 0.219 | relative viability ([12]; first compound 0.253 µM): 0.207 | relative viability ([12]; first compound 0.8 µM): 0.235 | relative viability ([12]; first compound 2.53 µM): 0.215 | relative viability ([13]; first compound 0.08 µM): 1.04 | relative viability ([13]; first compound 0.253 µM): 0.935 | relative viability ([13]; first compound 0.8 µM): 0.884 | relative viability ([13]; first compound 2.53 µM): 0.721 | relative viability ([14]; first compound 0.08 µM): 0.329 | relative viability ([14]; first compound 0.253 µM): 0.336 | relative viability ([14]; first compound 0.8 µM): 0.356 | relative viability ([14]; first compound 2.53 µM): 0.262 | relative viability ([15]; first compound 0.08 µM): 0.407 | relative viability ([15]; first compound 0.253 µM): 0.445 | relative viability ([15]; first compound 0.8 µM): 0.361 | relative viability ([15]; first compound 2.53 µM): 0.439 | relative viability ([16]; first compound 0.08 µM): 0.28 | relative viability ([16]; first compound 0.253 µM): 0.297 | relative viability ([16]; first compound 0.8 µM): 0.302 | relative viability ([16]; first compound 2.53 µM): 0.243 | relative viability ([17]; first compound 0.08 µM): 0.559 | relative viability ([17]; first compound 0.253 µM): 0.436 | relative viability ([17]; first compound 0.8 µM): 0.437 | relative viability ([17]; first compound 2.53 µM): 0.453 | relative viability ([18]; first compound 0.08 µM): 0.627 | relative viability ([18]; first compound 0.253 µM): 0.606 | relative viability ([18]; first compound 0.8 µM): 0.527 | relative viability ([18]; first compound 2.53 µM): 0.518 | relative viability ([19]; first compound 0.08 µM): 0.665 | relative viability ([19]; first compound 0.253 µM): 0.523 | relative viability ([19]; first compound 0.8 µM): 0.652 | relative viability ([19]; first compound 2.53 µM): 0.688 | relative viability ([20]; first compound 0.08 µM): 0.606 | relative viability ([20]; first compound 0.253 µM): 0.399 | relative viability ([20]; first compound 0.8 µM): 0.625 | relative viability ([20]; first compound 2.53 µM): 0.426 | relative viability ([21]; first compound 0.08 µM): 0.444 | relative viability ([21]; first compound 0.253 µM): 0.414 | relative viability ([21]; first compound 0.8 µM): 0.424 | relative viability ([21]; first compound 2.53 µM): 0.378 | relative viability ([22]; first compound 0.08 µM): 0.969 | relative viability ([22]; first compound 0.253 µM): 0.861 | relative viability ([22]; first compound 0.8 µM): 0.928 | relative viability ([22]; first compound 2.53 µM): 0.878 | relative viability ([23]; first compound 0.08 µM): 0.87 | relative viability ([23]; first compound 0.253 µM): 0.901 | relative viability ([23]; first compound 0.8 µM): 0.779 | relative viability ([23]; first compound 2.53 µM): 0.788
